Measurements taken from the supplement of paper PMC10307832.

Key:
Assay in all cases: relative viability (nuclei count vs DMSO), 5 days (fraction); higher = more cells survive
[1] = compound: O[C@@H](COc1cccc2ncccc12)CN1CCN([C@@H]2c3ccccc3[C@@H]3[C@H](c4ccccc42)C3(F)F)CC1 [Zosuquidar] + Cc1nc(NC(=O)N2CCC[C@H]2C(N)=O)sc1-c1ccnc(C(C)(C)C(F)(F)F)c1 [Alpelisib] (partner 2 µM)
Summary of the method: (§1)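 Lung cancer cell lines were pin-tool dosed in 1536-well plates on the day after seeding, with either a lone drug or a fixed anchor-drug dose plus five library-drug doses (not always all listed) in √10 steps. Nuclei were counted on 4× images after 5 days. Relative viability is the ratio of treated-well to vehicle-well nuclei counts, with each value a median of duplicate plates.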

[2] = compound: C1=CC(=CC=C1NC(=S)NNC2=C(C=C(C=C2[N+](=O)[O-])C(F)(F)F)[N+](=O)[O-])F [Kobe2602] + Nc1nc2[nH]cc(CCc3ccc(C(=O)N[C@@H](CCC(=O)O)C(=O)O)cc3)c2c(=O)[nH]1 [Pemetrexed] (partner 0.2 µM)
Summary of the method: as §1

[3] = compound: O[C@@H](COc1cccc2ncccc12)CN1CCN([C@@H]2c3ccccc3[C@@H]3[C@H](c4ccccc42)C3(F)F)CC1 [Zosuquidar] + Nc1ncn([C@H]2C[C@H](O)[C@@H](CO)O2)c(=O)n1 [Decitabine] (partner 2 µM)
Summary of the method: as §1

[4] = compound: C1=CC(=CC=C1NC(=S)NNC2=C(C=C(C=C2[N+](=O)[O-])C(F)(F)F)[N+](=O)[O-])F [Kobe2602] + CC(=O)Nc1cccc(-n2c(=O)n(C3CC3)c(=O)c3c(Nc4ccc(I)cc4F)n(C)c(=O)c(C)c32)c1 [Trametinib] (partner 0.02 µM)
Summary of the method: as §1

Cell Line	relative viability ([1]; first compound 0.01 µM)	relative viability ([1]; first compound 0.03162 µM)	relative viability ([1]; first compound 0.1 µM)	relative viability ([1]; first compound 0.3162 µM)	relative viability ([1]; first compound 1 µM)	relative viability ([2]; first compound 0.2 µM)	relative viability ([2]; first compound 0.6325 µM)	relative viability ([2]; first compound 2 µM)	relative viability ([2]; first compound 6.325 µM)	relative viability ([2]; first compound 20 µM)	relative viability ([3]; first compound 0.01 µM)	relative viability ([3]; first compound 0.03162 µM)	relative viability ([3]; first compound 0.1 µM)	relative viability ([3]; first compound 0.3162 µM)	relative viability ([3]; first compound 1 µM)	relative viability ([4]; first compound 0.2 µM)	relative viability ([4]; first compound 0.6325 µM)	relative viability ([4]; first compound 2 µM)	relative viability ([4]; first compound 6.325 µM)	relative viability ([4]; first compound 20 µM)
SK-MES-1	0.876	0.95	0.692	1.07	0.987	0.917	0.946	0.934	0.868	0.534	0.343	0.36	0.347	0.422	0.402	0.579	0.534	0.554	0.589	0.496
NCI-H522						1.06	1.19	0.974	1.15	1.01	0.681	0.624	0.643	0.618	0.657	0.9	0.947	0.736	0.742	0.723
LOU-NH91	0.702	0.717	0.6	0.718	0.725	0.351	0.361	0.379	0.391	0.392	0.805	0.814	0.703	0.834	0.761	0.763	0.793	0.739	0.793	0.821
NCI-H1355	0.851	0.801	0.596	0.971	0.87	1.06	1.07	0.992	0.983	0.968	0.388	0.393	0.355	0.382	0.401	0.441	0.464	0.369	0.415	0.43
NCI-H460	0.398	0.526	0.539	0.551	0.529		0.0647	0.0722	0.0653	0.0677	0.459	0.448	0.335	0.55	0.44		0.198	0.183	0.166	0.111
NCI-H1793	0.717	0.665		0.825	0.776	0.732	1.04	0.781	0.903	0.875	0.536			0.648	0.488	0.437	0.459	0.449	0.394	0.399
NCI-H2023	0.601	0.636	0.6	0.548	0.613	0.218	0.255	0.194	0.211	0.0788	0.195	0.281	0.235	0.246	0.268	0.469	0.608	0.592	0.444	0.201
NCI-H1666	0.876	1.04	1.04	0.912	0.863	0.81	0.861	1.01	0.934	0.861	0.766	0.788	0.671	0.789	0.678	0.824	0.836	0.766	0.89	0.808
HARA	0.784	0.822	0.765	0.825	0.761	0.228	0.296	0.255	0.239	0.313	0.474	0.542	0.607	0.492	0.629	0.846	0.636	0.627	0.771	0.752
Calu-6	0.938	0.972	1.01	1.12	0.879															
NCI-H2342						0.734	0.754	0.734	0.763	0.844	0.703	0.801	0.721	0.738	0.717	0.741	0.84	0.794	0.68	0.84
ChaGo-K-1						0.27	0.26	0.267	0.267	0.266	0.552	0.448	0.534	0.536	0.477	0.883	0.884	0.912	0.769	0.855
NCI-H1563	0.935	0.988	0.904	0.988	0.921	0.846	0.717	0.611	0.786	0.847										
NCI-H727	0.669	0.631	0.536	0.588	0.577						0.823	0.906		0.794	0.887	0.417	0.408	0.355		0.371
NCI-H1299	1.07	0.998	1.05	0.995	1.05															
CAL-12T	1.17	1.13	1.16	1.41	1.13	1.2	1.14	1.24	1.1	1.14						0.331	0.337	0.37	0.412	0.318
SW 900						0.472	0.489	0.479	0.487	0.493	0.478	0.466		0.394	0.421	0.959	0.745	0.807	0.677	0.548
ABC-1	0.949	1.07	1.06	0.994	1.16						1.27	1.15	1.15	1.24	1.15					
NCI-H1648						0.759	0.684	0.519	0.693	0.809	0.427	0.612	0.434	0.455	0.489	0.474	0.488	0.465	0.457	0.408
IA-LM	0.818	0.908	0.714	0.909	0.773															
A549	0.688	0.745	0.678	1.03	0.877						0.264	0.116		0.318	0.301					
NCI-H2228	0.562	0.716	0.881	0.679	0.859	0.369	0.356	0.339	0.344	0.35						0.645	0.612	0.41	0.461	0.742
